Measured values reported in ChEMBL document CHEMBL5096175, “An insight into the medicinal attributes of berberine derivatives: A review” (Bioorg Med Chem, 2021).

Tests used:
Ca-Ski = assay: Anticancer activity against human Ca-Ski cells assessed as inhibition of cell growth by Sulforhodamine B colorimetric assay; format: functional, cell-based
Chitinase B = Chitinase B (Serratia marcescens, UniProt P11797); assay: Inhibition of Serratia marcescens chitinase B expressed in Escherichia coli BL21(DE3) cells using MU-(GlcNAc)2 as a substrate assessed as inhibition constant incubated for 25 mins by dixon plot analysis
Acetylcholinesterase = Acetylcholinesterase (Homo sapiens, UniProt P22303); assay: Inhibition of acetylcholinesterase (unknown origin) using acetylthiocholine iodide as substrate incubated for 10 mins by Ellman's colorimetric method
HEK-293T = assay: Antiinflammatory activity against HEK-293T cells assessed as inhibition of TNF-alpha induced NF-kappaB activation at 5 uM preincubated for 2 hrs followed by TNFalpha stimulation for 6 hrs by dual-luciferase reporter assay relative to control; format: functional; settings: Homo sapiens, time 8 hrs
A549 [1] = assay: Antiproliferative activity against human A549 cells assessed as inhibition of cell growth incubated for 72 hrs by MTT assay; format: functional, cell-based; settings: A549, 72 h
Bel-7402 = assay: Antiproliferative activity against human Bel-7402 cells assessed as inhibition of cell growth incubated for 72 hrs by MTT assay; format: functional, cell-based; settings: Bel-7402, 72 h
HCT-8 [2] = assay: Antiproliferative activity against human HCT-8 cells assessed as inhibition of cell growth incubated for 72 hrs by MTT assay; format: functional, cell-based; settings: HCT-8, 72 h
HeLa [3] = assay: Antiproliferative activity against human HeLa cells assessed as inhibition of cell growth incubated for 72 hrs by MTT assay; format: functional, cell-based
[4] = target: Amine oxidase [flavin-containing] B (Homo sapiens, UniProt P27338); assay: Inhibition of human MAO-B preincubated for 30 mins followed by substrate addition and measured for 10 to 40 mins by fluorescence based assay
SGC-7901 = assay: Antiproliferative activity against human SGC-7901 cells assessed as inhibition of cell proliferation incubated for 48 hrs by MTT assay; format: functional, cell-based; settings: SGC-7901, 48 h
LS174T = assay: Antiproliferative activity against human LS174T cells assessed as inhibition of cell proliferation incubated for 48 hrs by MTT assay; format: functional, cell-based
HCT-116 = assay: Antiproliferative activity against human HCT-116 cells assessed as inhibition of cell proliferation incubated for 48 hrs by MTT assay; format: functional, cell-based; settings: HCT-116, 48 h
ECa-109 cell line = assay: Antiproliferative activity against human Eca-109 cells assessed as inhibition of cell proliferation incubated for 48 hrs by MTT assay; format: functional, cell-based; settings: ECa-109, 48 h
CCRF S-180 = assay: Antiproliferative activity against mouse CCRF S-180 cells assessed as inhibition of cell proliferation incubated for 48 hrs by MTT assay; format: functional, cell-based; settings: CCRF S-180, 48 h
MKN-28 = assay: Antiproliferative activity against human MKN-28 cells assessed as inhibition of cell proliferation incubated for 48 hrs by MTT assay; format: functional, cell-based; settings: MKN-28, 48 h
HCT-8 [5] = assay: Antiproliferative activity against human HCT-8 cells assessed as inhibition of cell proliferation incubated for 48 hrs by MTT assay; format: functional, cell-based; settings: HCT-8, 48 h
SW-620 = assay: Antiproliferative activity against human SW620 cells assessed as inhibition of cell proliferation incubated for 48 hrs by MTT assay; format: functional, cell-based; settings: SW-620, 48 h
MCF7 [6] = assay: Antiproliferative activity against human MCF7 cells incubated for 24 hrs by MTT assay; format: functional, cell-based; settings: MCF7, 24 h
MCF7 [7] = assay: Cytotoxicity against human MCF7 cells assessed as inhibition of cell proliferation incubated for 24 hrs by MTT assay; format: functional, cell-based; settings: MCF7, 24 h
A549 [8] = assay: Cytotoxicity against human A549 cells assessed as inhibition of cell proliferation incubated for 24 hrs by MTT assay; format: functional, cell-based; settings: A549, 24 h
HeLa [9] = assay: Cytotoxicity against human HeLa cells assessed as inhibition of cell proliferation incubated for 24 hrs by MTT assay; format: functional, cell-based
HepG2 = assay: Cytotoxicity against human HepG2 cells assessed as inhibition of cell proliferation incubated for 24 hrs by MTT assay; format: functional, cell-based; settings: HepG2, 24 h
PC-12 = assay: Cytotoxicity against […] cells assessed as inhibition of cell proliferation incubated for 24 hrs by MTT assay; format: functional, cell-based; settings: Rattus norvegicus, PC-12, 24 h

Sequence of Acetylcholinesterase (P22303 whole entry): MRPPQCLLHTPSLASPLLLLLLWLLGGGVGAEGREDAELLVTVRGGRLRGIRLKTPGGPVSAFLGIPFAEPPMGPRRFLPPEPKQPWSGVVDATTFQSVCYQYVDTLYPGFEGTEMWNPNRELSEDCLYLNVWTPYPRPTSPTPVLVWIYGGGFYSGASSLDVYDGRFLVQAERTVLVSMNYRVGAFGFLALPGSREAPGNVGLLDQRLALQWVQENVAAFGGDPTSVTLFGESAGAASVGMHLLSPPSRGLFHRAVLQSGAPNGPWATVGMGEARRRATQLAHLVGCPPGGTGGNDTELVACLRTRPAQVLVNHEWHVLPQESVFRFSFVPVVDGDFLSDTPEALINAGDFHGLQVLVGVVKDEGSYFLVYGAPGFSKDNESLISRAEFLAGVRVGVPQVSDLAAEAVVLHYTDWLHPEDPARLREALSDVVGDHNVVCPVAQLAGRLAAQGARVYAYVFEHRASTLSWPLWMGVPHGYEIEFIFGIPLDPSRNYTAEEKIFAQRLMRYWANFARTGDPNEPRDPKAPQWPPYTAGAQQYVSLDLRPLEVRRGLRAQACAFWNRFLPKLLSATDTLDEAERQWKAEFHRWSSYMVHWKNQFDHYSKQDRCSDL
Sequence of Chitinase B (P11797 whole entry): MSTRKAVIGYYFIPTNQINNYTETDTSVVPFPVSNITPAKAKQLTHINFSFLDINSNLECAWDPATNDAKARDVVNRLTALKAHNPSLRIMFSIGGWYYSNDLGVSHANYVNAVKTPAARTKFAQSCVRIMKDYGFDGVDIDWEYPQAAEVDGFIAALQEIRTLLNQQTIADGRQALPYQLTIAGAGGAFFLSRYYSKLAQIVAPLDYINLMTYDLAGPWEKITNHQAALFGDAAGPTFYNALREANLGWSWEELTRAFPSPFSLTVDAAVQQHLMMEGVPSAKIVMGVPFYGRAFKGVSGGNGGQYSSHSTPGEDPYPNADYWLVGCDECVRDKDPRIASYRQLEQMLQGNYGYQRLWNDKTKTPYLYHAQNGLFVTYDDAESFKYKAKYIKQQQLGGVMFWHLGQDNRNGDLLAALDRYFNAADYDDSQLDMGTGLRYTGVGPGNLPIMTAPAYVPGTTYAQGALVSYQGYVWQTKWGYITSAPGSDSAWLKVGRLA
Sequence of Amine oxidase [flavin-containing] B (P27338 whole entry): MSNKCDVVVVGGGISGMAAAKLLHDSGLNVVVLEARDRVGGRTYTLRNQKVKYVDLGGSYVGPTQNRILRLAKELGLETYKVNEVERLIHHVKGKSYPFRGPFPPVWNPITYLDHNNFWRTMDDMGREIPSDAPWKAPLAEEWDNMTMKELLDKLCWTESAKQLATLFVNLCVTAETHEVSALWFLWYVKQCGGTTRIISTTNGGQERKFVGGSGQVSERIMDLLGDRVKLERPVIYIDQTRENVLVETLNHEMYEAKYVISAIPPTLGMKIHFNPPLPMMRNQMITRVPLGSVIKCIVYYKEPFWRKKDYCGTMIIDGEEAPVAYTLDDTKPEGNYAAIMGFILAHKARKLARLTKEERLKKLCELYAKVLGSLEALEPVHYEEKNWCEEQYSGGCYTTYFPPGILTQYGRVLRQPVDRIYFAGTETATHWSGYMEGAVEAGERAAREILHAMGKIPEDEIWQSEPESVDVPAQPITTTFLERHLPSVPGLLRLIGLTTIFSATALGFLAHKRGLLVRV

## COc1cc(CN2CCN(C(=O)c3ccco3)CC2)c2cc3[n+](cc2c1O)CCc1cc2c(cc1-3)OCO2
Ca-Ski
  CC50: 344 µM
  IC50: 6.11 µM

## COc1ccc2cc3[n+](cc2c1OC(=O)c1ccccc1)CCc1cc2c(cc1-3)OCO2
Chitinase B
  Ki: 0.15 µM

## Oc1cc2c(cc1O)-c1cc3ccc(O)c(O)c3c[n+]1CC2
Acetylcholinesterase
  IC50: 2.3 µM

## CCCC(CCC)C(=O)Oc1c(OC)ccc2cc3[n+](cc12)CCc1cc2c(cc1-3)OCO2
HEK-293T
  inhibition at 5 µM: > 90%

## COc1ccc2cc3[n+](cc2c1OC(=O)c1ccc(C(C)(C)C)cc1)CCc1cc2c(cc1-3)OCO2
HEK-293T
  inhibition at 5 µM: > 90%

## COc1ccc2cc3[n+](cc2c1OC(=O)C[C@@H]1C[C@H]2CC[C@@H]1C2)CCc1cc2c(cc1-3)OCO2
HEK-293T
  inhibition at 5 µM: > 90%

## COCCCCC(=O)Oc1c(OC)ccc2cc3[n+](cc12)CCc1cc2c(cc1-3)OCO2
Chitinase B
  Ki: 0.15 µM

## COc1ccc2cc3[n+](cc2c1OC(=O)C1(C)CCCCC1)CCc1cc2c(cc1-3)OCO2
HEK-293T
  inhibition at 5 µM: > 90%

## CCCCCCN(CCCCCC)c1cc(OC)c(OC)c2c[n+]3c(cc12)-c1cc2c(cc1CC3)OCO2
A549 [1]
  IC50: 0.26 µM
Bel-7402
  IC50: 0.26 µM
HCT-8 [2]
  IC50: 0.26 µM
HeLa [3]
  IC50: 0.26 µM

## CCCCCN(CCCCC)c1cc(OC)c(OC)c2c1CC1c3cc4c(cc3CCN1C2)OCO4 (stereo not given)
A549 [1]
  IC50: 9.74 µM
Bel-7402
  IC50: 9.74 µM
HCT-8 [2]
  IC50: 9.74 µM
HeLa [3]
  IC50: 9.74 µM

## COc1ccc2cc3[n+](cc2c1OC)CCc1cc(O)c(O)cc1-3
[4]
  IC50: 9.06 µM
Acetylcholinesterase
  IC50: 7.8 µM

## COc1ccc2cc3[n+](cc2c1OC)CCc1cc2c(cc1-3)OCO2 [BERBERINE CHLORIDE]
SGC-7901
  IC50: 25 µM
LS174T
  IC50: 25 µM
HCT-116
  IC50: 25 µM
ECa-109 cell line
  IC50: 25 µM
CCRF S-180
  IC50: 25 µM
MKN-28
  IC50: 25 µM
HCT-8 [5]
  IC50: 25 µM
SW-620
  IC50: 25 µM

## CCCCCCCCCOc1c(OC)ccc2cc3[n+](cc12)CCc1cc2c(cc1-3)OCO2
MCF7 [6]
  IC50: 4.87 µM

## COc1ccc2cc3[n+](cc2c1OS(=O)(=O)c1ccc(C(F)(F)F)cc1)CCc1cc2c(cc1-3)OCO2
HEK-293T
  inhibition at 5 µM: > 90%

## COc1c(OC(=O)C23CC4CC(CC(C4)C2)C3)ccc2cc3[n+](cc12)CCc1cc2c(cc1-3)OCO2
HEK-293T
  inhibition at 5 µM: > 90%

## CCCCCC/C=C\C/C=C/C(=O)NCCCCCCOc1c(OC)ccc2cc3[n+](cc12)CCc1cc2c(cc1-3)OCO2
MCF7 [7]
  IC50: 3.91 µM
A549 [8]
  IC50: 3.25 µM
HeLa [9]
  IC50: 3.82 µM
HepG2
  IC50: 4.42 µM
PC-12
  IC50: 3.77 µM
